Measured values reported in US20170218445A1, “DRUG DISCOVERY METHODS USING PLANT DEVELOPMENTAL BIOLOGY” (SEOUL NATIONAL UNIVERSITY R&DB FOUNDATION, priority 2014, published 2017).

Test system: A. thaliana seedlings
Assay: Growth and development response of A. thaliana seedlings grown in liquid medium with anticancer drug or hot-water extract
Format: in vivo, Arabidopsis thaliana
Details: for generation of lateral roots: anticancer drug treatment; for hypocotyl length growth depending on concentration: statistical computing, FIG. 11
Experimental: The Columbia seeds collected from wild-type A. thaliana plants were sterilized and then kept in a dark place at 4° C. for 3 days to enhance germination rate thereof. The wild-type A. thaliana seeds sown on an MS solid medium containing agar were germinated at 22° C. and on the long day condition of 16 hours the day/8 hours night and allowed to grow the A. thaliana seedlings for three days.
The undiluted extract of traditional herbal medicinal material described above was diluted at the ratios of 0.5×, 0.25× and 0.05×, and the MS liquid medium of 1 ml was mixed well with distilled water to make a total volume of 2 ml. in a 12-well cell culture plate. About ten A. thaliana seedlings were planted in each well and the plates were put on a shaker to cultivate them at 100 rpm for three days. Growth and development of the arabidopsis seedlings was analyzed after three days. Each test was carried out in 3 replicates.
The analysis of A. thaliana seedling response to anticancer drugs was made in the same manner, except that the anticancer drugs were applied instead of the traditional herbal medicinal material extract.
Root length, the number of lateral roots and hypocotyl length of the A. thaliana seedlings were measured in order to find the difference in developmental biology shown by the response of A. thaliana seedlings to the anticancer drugs and the extract. The ImageJ software (see rsb.info.nih.gov/ij/) was used to measure the respective lengths in images of the photograph file.
Crude extracts were made with the traditional herbal medicinal materials of each prescription and medicinal material components thereof, respectively, and the ⅕-fold-diluted solution was used as a first effective concentration. The solution was produced by adding 0.4 ml of the crude extract to 1 ml of the 0.5× MS medium and 0.6 ml of water.
For making more quantitative analysis of the reaction to respective traditional herbal medicinal materials, the number of lateral roots were measured for 12 or more A. thaliana seeedlings in each treatment group. […]

[1] = vs DMSO-treated control seedlings, FIG. 8

| Structure (SMILES) | generation of lateral roots at low concentration (0.05 uM) | generation of lateral roots (FIG. 8) | hypocotyl length growth depending on concentration | root morphology (2 uM, three days after treatment, vs water-treated control roots, FIG. 9) | number of lateral roots generated (treated or not with taxol, FIG. 8) | hypocotyl growth [1] | root growth [1] | trichome morphology (branches) (vs control group, FIG. 10) |
| --- | --- | --- | --- | --- | --- | --- | --- | --- |
| CC[C@@]1(O)C(=O)OCc2c1cc1n(c2=O)Cc2cc3ccccc3nc2-1 [camptothecin] | inhibited generation of lateral roots | markedly inhibited | inhibited in a significant level | – | – | – | – | – |
| CC(=O)O[C@H]1C(=O)[C@@]2(C)[C@H]([C@H](OC(=O)c3ccccc3)[C@]3(O)C[C@H](OC(=O)[C@H](O)[C@@H](NC(=O)c4ccccc4)c4ccccc4)C(C)=C1C3(C)C)[C@]1(OC(C)=O)CO[C@@H]1C[C@@H]2O [taxol, Paclitaxel] | – | not significantly affected | inhibited in a significant level | dense root hairs and opaque epidermal cells | Approximately five | inhibited in proportion to the concentrations | inhibited in proportion to the concentrations | changed from the three-branch type to the one-branch type |
